From ChEMBL document CHEMBL5108020, “Design and synthesis of novel benzimidazole derivatives as potential Pseudomonas aeruginosa anti-biofilm agents inhibiting LasR: Evidence from comprehensive molecular dynamics simulation and in vitro investigation” (Eur J Med Chem, 2022)
One block for each compound: values may come before it.

Assays:
[1] = target: T1, Transcriptional activator protein LasR (Pseudomonas aeruginosa (strain ATCC 15692 / PAO1 / 1C / PRS 101 / LMG12228)) (UniProt P25084); test: Inhibition of Pseudomonas aeruginosa MH602 LasR co-transfected with ASVgfp reporter assessed as inhibition of GFP production at 250 uM by fluorescence based analysis
T1 sequence (whole entry): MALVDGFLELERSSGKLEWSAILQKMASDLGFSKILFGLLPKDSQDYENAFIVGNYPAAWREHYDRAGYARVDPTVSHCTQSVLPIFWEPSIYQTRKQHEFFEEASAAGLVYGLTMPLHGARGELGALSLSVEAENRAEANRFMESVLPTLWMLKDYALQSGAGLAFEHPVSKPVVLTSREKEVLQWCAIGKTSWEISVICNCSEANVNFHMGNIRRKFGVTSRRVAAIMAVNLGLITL

[2] = target: T1, Transcriptional activator protein LasR (Pseudomonas aeruginosa (strain ATCC 15692 / PAO1 / 1C / PRS 101 / LMG12228)); test: Inhibition of Pseudomonas aeruginosa MH602 LasR co-transfected with ASVgfp reporter assessed as inhibition of GFP production at 125 uM by fluorescence based analysis
[3] = target: T1, Transcriptional activator protein LasR (Pseudomonas aeruginosa (strain ATCC 15692 / PAO1 / 1C / PRS 101 / LMG12228)); test: Inhibition of Pseudomonas aeruginosa MH602 LasR co-transfected with ASVgfp reporter assessed as inhibition of GFP production at 62.5 uM by fluorescence based analysis
[4] = target: T2, Transcriptional activator protein LasR (Pseudomonas aeruginosa (strain ATCC 15692 / PAO1 / 1C / PRS 101 / LMG12228), UniProt P25084); test: Inhibition of Pseudomonas aeruginosa PAO1 LasR co-transfected with LVAgfp reporter assessed as inhibition of GFP production measured after 12 to 24 hrs by fluorescence based analysis
T2 sequence (P25084 whole entry): T1 sequence (whole entry)

[5] = target: T3, HTH-type quorum-sensing regulator RhlR (Pseudomonas aeruginosa (strain ATCC 15692 / PAO1 / 1C / PRS 101 / LMG12228), UniProt P54292); test: Inhibition of Pseudomonas aeruginosa PAO1 RhlR co-transfected with LVAgfp reporter assessed as inhibition of GFP production measured after 12 to 24 hrs by fluorescence based analysis
T3 sequence (P54292 whole entry): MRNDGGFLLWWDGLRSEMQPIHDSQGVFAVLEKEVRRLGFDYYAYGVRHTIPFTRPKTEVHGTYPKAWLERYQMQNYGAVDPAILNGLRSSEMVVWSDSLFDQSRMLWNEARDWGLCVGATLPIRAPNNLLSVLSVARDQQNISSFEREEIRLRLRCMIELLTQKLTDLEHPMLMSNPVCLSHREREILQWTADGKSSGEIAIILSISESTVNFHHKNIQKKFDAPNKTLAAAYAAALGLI

[6] = target: T2, Transcriptional activator protein LasR; test: Inhibition of Pseudomonas aeruginosa PAO-JP2 LasR co-transfected with LVAgfp reporter assessed as inhibition of GFP production by fluorescence based analysis
[7] = target: T2, Transcriptional activator protein LasR; test: Inhibition of Pseudomonas aeruginosa PAO-JG21 LasR co-transfected with LVAgfp reporter assessed as inhibition of GFP production by fluorescence based analysis
[8] = target: T2, Transcriptional activator protein LasR; test: Inhibition of Pseudomonas aeruginosa PAO1 LasR
[9] = target: T3, HTH-type quorum-sensing regulator RhlR; test: Inhibition of Pseudomonas aeruginosa PAO1 RhlR

inhibition [1]: 68.2%
inhibition [2]: 67.1%
inhibition [3]: 63.7%
SMILES: O=C(Cn1cc(-c2ccc([N+](=O)[O-])cc2)nn1)Nc1nc2ccccc2[nH]1

IC50 [4]: 37.5 µM
IC50 [5]: 12.5 µM
SMILES: Cc1cc2nc(N)[nH]c2cc1C

IC50 [6]: 2.3 µM
IC50 [7]: 1.4 µM
IC50 [8]: 399 µM
IC50 [9]: 285 µM
SMILES: Nc1nc2ccccc2[nH]1
